Among the data in article PMC6423783, “Flavokawain B targets protein neddylation for enhancing the anti-prostate cancer effect of Bortezomib via Skp2 degradation” (Cell Communication and Signaling : CCS, 2019) are IC50 values, retold here.

For this experiment, the target named is T1, NAE1 regulatory subunit APP-BP1 (NEDD8 activating enzyme, NAE) (Homo sapiens, UniProt Q13564).
T1 construct: APP-BP1/UBA3 (NEDD8 ligase E1); with UBA3
T1 sequence (Q13564 2-534): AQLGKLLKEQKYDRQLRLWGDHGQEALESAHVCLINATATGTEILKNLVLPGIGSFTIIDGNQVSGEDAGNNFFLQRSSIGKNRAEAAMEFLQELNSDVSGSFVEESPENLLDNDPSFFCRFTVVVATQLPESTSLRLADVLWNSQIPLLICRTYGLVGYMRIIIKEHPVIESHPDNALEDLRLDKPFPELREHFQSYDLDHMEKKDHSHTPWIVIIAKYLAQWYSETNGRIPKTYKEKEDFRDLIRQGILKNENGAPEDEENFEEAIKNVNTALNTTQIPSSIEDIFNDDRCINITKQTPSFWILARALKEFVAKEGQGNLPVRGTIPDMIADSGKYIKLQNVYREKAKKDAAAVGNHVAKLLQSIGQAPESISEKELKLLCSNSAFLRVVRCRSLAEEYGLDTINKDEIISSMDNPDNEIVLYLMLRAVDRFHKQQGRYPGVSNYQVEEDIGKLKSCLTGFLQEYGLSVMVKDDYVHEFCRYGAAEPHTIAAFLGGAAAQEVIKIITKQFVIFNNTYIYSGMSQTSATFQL
T1 sequence (Q8TBC4 2-463 partner): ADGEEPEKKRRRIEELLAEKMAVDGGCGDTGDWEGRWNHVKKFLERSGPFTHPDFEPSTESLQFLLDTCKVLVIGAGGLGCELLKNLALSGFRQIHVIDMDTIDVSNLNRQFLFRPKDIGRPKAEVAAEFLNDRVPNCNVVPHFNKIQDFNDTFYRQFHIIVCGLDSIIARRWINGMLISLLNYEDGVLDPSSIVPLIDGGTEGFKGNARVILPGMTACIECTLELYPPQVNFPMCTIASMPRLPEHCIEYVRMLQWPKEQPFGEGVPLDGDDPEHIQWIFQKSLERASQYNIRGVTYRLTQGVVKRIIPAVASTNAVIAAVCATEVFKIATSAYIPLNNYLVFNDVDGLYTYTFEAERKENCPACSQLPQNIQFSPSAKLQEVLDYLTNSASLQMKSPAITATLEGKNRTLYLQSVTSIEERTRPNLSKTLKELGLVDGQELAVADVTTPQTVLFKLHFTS
Nature of the experiment: in vitro NEDD8 initiation conjugation assay (APP-BP1/UBA3, UbcH12, NEDD8; Western readout), supported by CETSA of APP-BP1 in PC3 cells. The class given is biochemical. As to the method:
in vitro NEDD8 initiation conjugation assay (APP-BP1/UBA3, UbcH12, NEDD8; Western readout), supported by CETSA of APP-BP1 in PC3 cells on NAE1 regulatory subunit APP-BP1 (NEDD8 activating enzyme, NAE) | The relative density of NEDD8-Ubc12 to the control was analyzed to have an estimated IC50 of approximately11μM

Molecules are shown by their SMILES.

As a reminder, the IC50 is the concentration that inhibits the measured activity by half. Low readings indicate higher potency, high ones lower potency. For `COc1cc(O)c(C(=O)/C=C/c2ccccc2)c(OC)c1` [FKB, Flavokawain B], the IC50 is around 11 µM.
